According to patent publication US10047050B2, “3,4-di-substituted pyridine compound, methods of using and compositions comprising the same” (ARDEA BIOSCIENCES, INC., priority 2011, dated 2018):
Where “and” joins values, the source holds several entries; their conditions need not be identical. Equal values may be shown once.

Test system: serum uric acid
Assay: Single-dose Phase I clinical trial, serum uric acid (sUA) 0-72 hours post-dose
Type: in vivo, human
Conditions: for % sUA change (from baseline) / % sUA reduction (from baseline): individual subjects 3-8; for % sUA change (from baseline), Mean (3-8) / Absolute sUA concentration, Mean (3-8) / % sUA reduction (from baseline), Mean (3-8): mean of subjects 3-8
Procedure: A Phase 1, Randomized, Double-Blind, Placebo-Controlled Study to Evaluate Safety, Tolerability, Pharmacokinetics and Preliminary Food Effect of Single Doses of a URAT1 Inhibitor, in Healthy Adult Male Volunteers.
To assess safety, tolerability, pharmacokinetics and uricosuric effects after oral administration as single doses of a tablet formulation and the effect of food on bioavailability.
Subjects receive a single, oral dose of active or placebo, at the following doses:
Group 4: 20 mg (fasted) [sentinel dosing];
48 subjects in 6 dose groups, 8 subjects/group, are randomized 3:1 to receive active (6/group) or placebo (2/group). All study procedures are the same regardless of whether subject receives active or placebo. The total duration of subject participation, including screening period, is ˜2-4 weeks, and the total volume of blood collected from each subject during the entire study <500 mL, (less than typically collected during a volunteer blood donation).
5 mg and 20 mg, active and placebo, tablets packaged in 35 count HDPE bottles, stored at controlled room temperature (15-30° C.). Placebo tablets are designed to match the active tablets—identical size, form, taste, and color, and containing the same excipients. 2 mg was dosed as an oral solution.
Subjects dosed on the morning of Day 1 with ˜240 mL of room temp water.
Fasted: subjects are dosed after overnight fast >10 hours and remain fasted until >4 hours post-dose.
Fed: subjects fast overnight for >10 hours, then are dosed 30 mins after completing standard moderate fat breakfast (no high fructose corn syrup).
Serum samples are collected at:
PD samples are frozen (−20° C.) and stored; all samples from a given subject assayed in a single analytical run.

[1] = Group 1, 2 mg single oral dose, fasted, 0 h (baseline)
[2] = Group 1, 2 mg single oral dose, fasted, 6 h post-dose
[3] = Group 1, 2 mg single oral dose, fasted, 12 h post-dose
[4] = Group 1, 2 mg single oral dose, fasted, 24 h post-dose
[5] = Group 1, 2 mg single oral dose, fasted, 30 h post-dose
[6] = Group 1, 2 mg single oral dose, fasted, 36 h post-dose
[7] = Group 1, 2 mg single oral dose, fasted, 48 h post-dose
[8] = Group 1, 2 mg single oral dose, fasted, 54 h post-dose
[9] = Group 1, 2 mg single oral dose, fasted, 60 h post-dose
[10] = Group 1, 2 mg single oral dose, fasted, 72 h post-dose
[11] = Group 2, 5 mg single oral dose, fasted, 0 h (baseline)
[12] = Group 2, 5 mg single oral dose, fasted, 6 h post-dose
[13] = Group 2, 5 mg single oral dose, fasted, 12 h post-dose
[14] = Group 2, 5 mg single oral dose, fasted, 24 h post-dose
[15] = Group 2, 5 mg single oral dose, fasted, 30 h post-dose
[16] = Group 2, 5 mg single oral dose, fasted, 36 h post-dose
[17] = Group 2, 5 mg single oral dose, fasted, 48 h post-dose
[18] = Group 2, 5 mg single oral dose, fasted, 54 h post-dose
[19] = Group 2, 5 mg single oral dose, fasted, 60 h post-dose
[20] = Group 2, 5 mg single oral dose, fasted, 72 h post-dose
[21] = Group 3, 5 mg single oral dose, fed, 0 h (baseline)
[22] = Group 3, 5 mg single oral dose, fed, 6 h post-dose
[23] = Group 3, 5 mg single oral dose, fed, 12 h post-dose
[24] = Group 3, 5 mg single oral dose, fed, 24 h post-dose
[25] = Group 3, 5 mg single oral dose, fed, 30 h post-dose
[26] = Group 3, 5 mg single oral dose, fed, 36 h post-dose
[27] = Group 3, 5 mg single oral dose, fed, 48 h post-dose

CC(C)(Sc1ccncc1-c1ccc(C#N)c2ccccc12)C(=O)O [2-((3-(4-cyanonaphthalen-1-yl)pyridin-4-yl)thio)-2-methylpropanoic acid]
% sUA change (from baseline) [1]: 0% | % sUA change (from baseline), Mean (3-8) [1]: 0% | Absolute sUA concentration, Mean (3-8) [1]: 6.5 mg/dL | % sUA change (from baseline) [2]: −30.4% and −47.5% and −35.5% and −37.8% and −38.2% and −33.3% | % sUA change (from baseline), Mean (3-8) [2]: −10.2% | Absolute sUA concentration, Mean (3-8) [2]: 5.8 mg/dL | % sUA change (from baseline) [3]: −44.6% (2×) and −52.5% and −48.4% and −43.4% and −42.3% | % sUA change (from baseline), Mean (3-8) [3]: −15.6% | Absolute sUA concentration, Mean (3-8) [3]: 5.5 mg/dL | % sUA change (from baseline) [4]: −41.1% and −44.1% and −43.5% and −40.5% and −43.4% and −46.2% | % sUA change (from baseline), Mean (3-8) [4]: −8.1% | Absolute sUA concentration, Mean (3-8) [4]: 6.0 mg/dL | % sUA change (from baseline) [5]: −46.4% and −52.5% and −43.5% and −44.6% and −44.7% and −52.6% | % sUA change (from baseline), Mean (3-8) [5]: −13.5% | Absolute sUA concentration, Mean (3-8) [5]: 5.6 mg/dL | % sUA change (from baseline) [6]: −48.2% and −52.5% and −45.2% and −45.9% and −46.1% and −52.6% | % sUA change (from baseline), Mean (3-8) [6]: −18.8% | Absolute sUA concentration, Mean (3-8) [6]: 5.3 mg/dL | % sUA change (from baseline) [7]: −32.1% and −42.4% and −38.7% and −36.5% and −35.5% and −48.7% | % sUA change (from baseline), Mean (3-8) [7]: −13.3% | Absolute sUA concentration, Mean (3-8) [7]: 5.6 mg/dL | % sUA change (from baseline) [8]: −33.9% and −45.8% and −37.1% and −27% and −32.9% and −48.7% | % sUA change (from baseline), Mean (3-8) [8]: −19.3% | Absolute sUA concentration, Mean (3-8) [8]: 5.3 mg/dL | % sUA change (from baseline) [9]: −35.7% and −45.8% and −35.5% and −29.7% and −32.9% and −46.2% | % sUA change (from baseline), Mean (3-8) [9]: −21.3% | Absolute sUA concentration, Mean (3-8) [9]: 5.1 mg/dL | % sUA change (from baseline) [10]: −23.2% and −30.5% and −16.1% and −14.9% and −15.8% and −28.2% | % sUA change (from baseline), Mean (3-8) [10]: −15.5% | Absolute sUA concentration, Mean (3-8) [10]: 5.5 mg/dL | % sUA reduction (from baseline) [11]: 0% | % sUA reduction (from baseline), Mean (3-8) [11]: 0% | Absolute sUA concentration, Mean (3-8) [11]: 6.5 mg/dL | % sUA reduction (from baseline) [12]: −24.3% and −13.9% and −14.3% and −13.1% and −27.9% and −22.0% | % sUA reduction (from baseline), Mean (3-8) [12]: −19.3% | Absolute sUA concentration, Mean (3-8) [12]: 5.3 mg/dL | % sUA reduction (from baseline) [13]: −36.5% and −16.7% and −19.0% and −13.1% and −37.7% and −32.2% | % sUA reduction (from baseline), Mean (3-8) [13]: −25.9% | Absolute sUA concentration, Mean (3-8) [13]: 4.8 mg/dL | % sUA reduction (from baseline) [14]: −25.7% and −11.1% (2×) and 0.0% and −26.2% and −16.9% | % sUA reduction (from baseline), Mean (3-8) [14]: −15.2% | Absolute sUA concentration, Mean (3-8) [14]: 5.5 mg/dL | % sUA reduction (from baseline) [15]: −29.7% and −16.7% and −17.5% and −8.2% and −36.1% and −28.8% | % sUA reduction (from baseline), Mean (3-8) [15]: −22.8% | Absolute sUA concentration, Mean (3-8) [15]: 5.0 mg/dL | % sUA reduction (from baseline) [16]: −32.4% and −23.6% and −14.3% and −14.8% and −41.0% and −32.2% | % sUA reduction (from baseline), Mean (3-8) [16]: −26.4% | Absolute sUA concentration, Mean (3-8) [16]: 4.8 mg/dL | % sUA reduction (from baseline) [17]: −27.0% and −11.1% and −9.5% and −11.5% and −31.1% and −20.3% | % sUA reduction (from baseline), Mean (3-8) [17]: −18.4% | Absolute sUA concentration, Mean (3-8) [17]: 5.3 mg/dL | % sUA reduction (from baseline) [18]: −31.1% and −18.1% and −15.9% and −16.4% and −32.8% and −28.8% | % sUA reduction (from baseline), Mean (3-8) [18]: −23.9% | Absolute sUA concentration, Mean (3-8) [18]: 5.0 mg/dL | % sUA reduction (from baseline) [19]: −28.4% and −22.2% and −20.6% and −21.3% and −32.8% and −28.8% | % sUA reduction (from baseline), Mean (3-8) [19]: −25.7% | Absolute sUA concentration, Mean (3-8) [19]: 4.8 mg/dL | % sUA reduction (from baseline) [20]: −21.6% and −15.3% and −12.7% and −13.1% and −26.2% and −23.7% | % sUA reduction (from baseline), Mean (3-8) [20]: −18.8% | Absolute sUA concentration, Mean (3-8) [20]: 5.3 mg/dL | % sUA reduction (from baseline) [21]: 0% | % sUA reduction (from baseline), Mean (3-8) [21]: 0% | Absolute sUA concentration, Mean (3-8) [21]: 6.0 mg/dL | % sUA reduction (from baseline) [22]: −36.2% and −31.8% and −25.0% and −22.8% and −30.0% | % sUA reduction (from baseline), Mean (3-8) [22]: −29.2% | Absolute sUA concentration, Mean (3-8) [22]: 4.1 mg/dL | % sUA reduction (from baseline) [23]: −40.6% and −37.9% and −29.2% and −25.0% and −22.8% | % sUA reduction (from baseline), Mean (3-8) [23]: −32.2% | Absolute sUA concentration, Mean (3-8) [23]: 4.0 mg/dL | % sUA reduction (from baseline), Mean (3-8) [24]: −17.2% | Absolute sUA concentration, Mean (3-8) [24]: 4.9 mg/dL | % sUA reduction (from baseline), Mean (3-8) [25]: −25.6% | Absolute sUA concentration, Mean (3-8) [25]: 4.4 mg/dL | % sUA reduction (from baseline), Mean (3-8) [26]: −29.1% | Absolute sUA concentration, Mean (3-8) [26]: 4.2 mg/dL | % sUA reduction (from baseline) [27]: −31.9% and −30.3% and −23.1% and −23.3% and −14.0% and −27.5% | % sUA reduction (from baseline), Mean (3-8) [27]: −25.0%
